Data on six molecules can be found in patent US20250041429A1, “COMPOUND HAVING BTK PROTEIN DEGRADATION ACTIVITY, AND MEDICAL USES THEREOF” (UBIX THERAPEUTICS, INC., priority 2021, published 2025).

The target of this assay is T1, BTK protein (Homo sapiens, UniProt Q06187).
T1 construct: endogenous in cells; host or cells: TMD-8 cells
Put plainly: Measurement of BTK protein degradation ability in TMD-8 cells (Western blotting). The following applies: harvested after 24 hours; for BTK degradation (%) 1 nM: compound 1 nM; for BTK degradation (%) 10 nM: compound 10 nM; for BTK degradation (%) 100 nM: compound 100 nM. Type of assay: cell-based. Put shortly: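 BTK levels were measured by immunoblotting of equal-protein RIPA lysates, normalized to GAPDH or β-actin, with chemiluminescent or infrared detection. Lysates came from TMD-8 cells exposed to compound for 24 h at final concentrations of 0.1, 1, 10 μM or 0.0001–0.1 μM, against a DMSO control.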

The structures appear in SMILES notation.

T1 sequence (Q06187 whole entry): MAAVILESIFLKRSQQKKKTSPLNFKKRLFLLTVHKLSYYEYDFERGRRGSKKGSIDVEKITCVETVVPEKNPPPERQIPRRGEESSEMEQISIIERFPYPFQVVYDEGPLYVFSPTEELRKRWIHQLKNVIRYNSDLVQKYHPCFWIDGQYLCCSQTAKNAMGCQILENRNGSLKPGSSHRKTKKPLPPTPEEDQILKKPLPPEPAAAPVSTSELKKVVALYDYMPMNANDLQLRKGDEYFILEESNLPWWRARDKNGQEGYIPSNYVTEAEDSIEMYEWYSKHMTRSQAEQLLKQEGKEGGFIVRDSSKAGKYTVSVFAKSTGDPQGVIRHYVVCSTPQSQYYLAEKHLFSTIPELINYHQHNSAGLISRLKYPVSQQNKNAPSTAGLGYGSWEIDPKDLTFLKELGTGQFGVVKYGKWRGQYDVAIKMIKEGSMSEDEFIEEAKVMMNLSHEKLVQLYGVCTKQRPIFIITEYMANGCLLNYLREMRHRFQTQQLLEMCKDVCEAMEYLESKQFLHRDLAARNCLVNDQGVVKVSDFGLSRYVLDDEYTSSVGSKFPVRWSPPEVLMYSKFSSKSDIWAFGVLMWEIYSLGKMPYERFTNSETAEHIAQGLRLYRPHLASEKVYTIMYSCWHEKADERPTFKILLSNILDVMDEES

For `Cc1cc(NC(=O)N2CC(OC(C)C)C2)cc(-c2ccnc(Nc3ccc(N4CCN(CC5CCN(c6ccc7c(c6)C(=O)N(C6CCC(=O)NC6=O)C7=O)CC5)CC4)cc3)n2)c1` (stereo not drawn) [Example 29, N-(3-(2-((4-(4-((1-(2-(2,6-dioxopiperidin-3-yl)-1,3-dioxoisoindolin-5-yl)piperidin-4-yl)methyl)piperazin-1-yl)phenyl)amino)pyrimidin-4-yl)-5-methylphenyl)-3-isopropoxyazetidine-1-carboxamide], the “BTK degradation (%) 1 nM” value was 7%, the “BTK degradation (%) 10 nM” value is 40.5% and the “BTK degradation (%) 100 nM” value is on record as 81.5%.
Take `Cc1cc(-c2ccnc(Nc3ccc(N4CCN(CC5CCN(c6ccc7c(c6)C(=O)N(C6CCC(=O)NC6=O)C7=O)CC5)CC4)cc3)n2)ccc1COC(=O)N1CC(OC(C)C)C1` (stereo not drawn) [Example 30, 4-(2-((4-(4-((1-(2-(2,6-dioxopiperidin-3-yl)-1,3-dioxoisoindolin-5-yl)piperidin-4-yl)methyl)piperazin-1-yl)phenyl)amino)pyrimidin-4-yl)-2-methylbenzyl 3-isopropoxyazetidine-1-carboxylate]: the “BTK degradation (%) 1 nM” value is recorded as −1%, the “BTK degradation (%) 10 nM” value came out at 20.5% and the “BTK degradation (%) 100 nM” value was 91.5%.
Take `Cc1cc(-c2ccnc(Nc3ccc(N4CCN(CC5CN(c6ccc7c(c6)C(=O)N(C6CCC(=O)NC6=O)C7=O)C5)CC4)cc3)n2)ccc1CNC(=O)c1cnn(C(C)(C)C)c1` (stereo not drawn) [Example 31, 1-(tert-butyl)-N-(4-(2-((4-(4-((1-(2-(2,6-dioxopiperidin-3-yl)-1,3-dioxoisoindolin-5-yl)azetidin-3-yl)methyl)piperazin-1-yl)phenyl)amino)pyrimidin-4-yl)-2-methylbenzyl)-1H-pyrazole-4-carboxamide]: the “BTK degradation (%) 1 nM” value worked out at 61.5%, the “BTK degradation (%) 10 nM” value was 94.5% and the “BTK degradation (%) 100 nM” value was determined as 98.5%.
Consider `Cc1cc(-c2ccnc(Nc3ccc(N4CCN(CC5CN(c6ccc7c(c6)C(=O)N(C6CCC(=O)NC6=O)C7=O)C5)CC4)cc3)n2)ccc1CNC(=O)c1cn(C(C)(C)C)nn1` (stereo not drawn) [Example 32, 1-(tert-butyl)-N-(4-(2-((4-(4-((1-(2-(2,6-dioxopiperidin-3-yl)-1,3-dioxoisoindolin-5-yl)azetidin-3-yl)methyl)piperazin-1-yl)phenyl)amino)pyrimidin-4-yl)-2-methylbenzyl)-1H-1,2,3-triazole-4-carboxamide], for which the “BTK degradation (%) 1 nM” value is listed as 58.5%, the “BTK degradation (%) 10 nM” value is listed as 92% and the “BTK degradation (%) 100 nM” value came to 98.5%.
For the molecule `Cc1cc(-c2ccnc(Nc3ccc(N4CCN(CC5CCN(c6ccc7c(c6)C(=O)N(C6CCC(=O)NC6=O)C7=O)CC5)CC4)cc3)n2)ccc1CNC(=O)c1cnn(C(C)C)c1` (stereo not drawn) [Example 33, N-(4-(2-((4-(4-((1-(2-(2,6-dioxopiperidin-3-yl)-1,3-dioxoisoindolin-5-yl)piperidin-4-yl)methyl)piperazin-1-yl)phenyl)amino)pyrimidin-4-yl)-2-methylbenzyl)-1-isopropyl-1H-pyrazole-4-carboxamide], the “BTK degradation (%) 1 nM” value is on record as 49.5%, the “BTK degradation (%) 10 nM” value was 93.5% and the “BTK degradation (%) 100 nM” value is 99.5%.
`Cc1cc(-c2ccnc(Nc3ccc(N4CCN(CC5CN(c6ccc7c(c6)C(=O)N(C6CCC(=O)NC6=O)C7=O)C5)CC4)cc3)n2)ccc1CNC(=O)c1cnn(C(C)C)c1` (stereo not drawn) [Example 34, N-(4-(2-((4-(4-((1-(2-(2,6-dioxopiperidin-3-yl)-1,3-dioxoisoindolin-5-yl)azetidin-3-yl)methyl)piperazin-1-yl)phenyl)amino)pyrimidin-4-yl)-2-methylbenzyl)-1-isopropyl-1H-pyrazole-4-carboxamide]: the “BTK degradation (%) 1 nM” value came out at 41%, the “BTK degradation (%) 10 nM” value is 90% and the “BTK degradation (%) 100 nM” value turned out to be 99.5%.
